The NIST ThermoML archive (doi:10.1016/j.jct.2018.08.036)

How the values were obtained:
[1] = xn = mol fraction of the nth substance listed; conditions: 100 kPa, Liquid; for viscosity: Falling or rolling sphere viscometry; for speed of sound: Frequency=3 MHz, Single path-length method; for mass density: Vibrating tube method
[2] = refractive index (Na D-line) (dimensionless); xn = mol fraction of the nth substance listed; conditions: 100 kPa, Liquid, Standard Abbe refractometry

CCC(C)c1ccccc1 (centres undefined) [(1-methylpropyl)benzene] + CCCCCCCCCCCCCCCC
Conditions	mass density, [1] [kg/m3]	refractive index, [2]	speed of sound, [1] [m/s]	viscosity, [1] [mPa·s]
298.15 K, x2 = 0	857.89	1.4876	1313.8	0.912
298.15 K, x2 = 0.0702	846.08	1.4801	1312	1.004
298.15 K, x2 = 0.1382	836.12	1.4738	1311.4	1.112
298.15 K, x2 = 0.2541	821.7	1.4647	1312.4	1.33
298.15 K, x2 = 0.3113	815.5	1.4608	1313.7	1.449
298.15 K, x2 = 0.4028	806.76	1.4553	1316.1	1.644
298.15 K, x2 = 0.4757	800.6	1.4515	1318.4	1.793
298.15 K, x2 = 0.5349	796.04	1.4486	1320.7	1.924
298.15 K, x2 = 0.6167	790.37	1.4451	1323.2	2.101
298.15 K, x2 = 0.7476	782.25	1.4401	1328.3	2.387
298.15 K, x2 = 0.832	777.71	1.4373	1331.6	2.587
308.15 K, x2 = 0	849.78	1.4827	1274.5	0.796
308.15 K, x2 = 0.0702	838.16	1.4753	1273.2	0.874
308.15 K, x2 = 0.1382	828.35	1.469	1273.1	0.954
308.15 K, x2 = 0.2541	814.15	1.46	1274.7	1.128
308.15 K, x2 = 0.3113	808.04	1.4562	1276.1	1.223
308.15 K, x2 = 0.4028	799.42	1.4508	1278.8	1.375
308.15 K, x2 = 0.4757	793.34	1.447	1281.2	1.493
308.15 K, x2 = 0.5349	788.84	1.4441	1283.5	1.592
308.15 K, x2 = 0.6167	783.24	1.4407	1286.2	1.734
308.15 K, x2 = 0.7476	775.3	1.4358	1291.7	1.95
308.15 K, x2 = 0.832	770.73	1.433	1294.6	2.099
318.15 K, x2 = 0	841.64	1.4778	1235.7	0.707
318.15 K, x2 = 0.0702	830.21	1.4704	1235	0.771
318.15 K, x2 = 0.1382	820.55	1.4642	1235.3	0.838
318.15 K, x2 = 0.2541	806.57	1.4553	1237.4	0.975
318.15 K, x2 = 0.3113	800.55	1.4516	1239	1.05
318.15 K, x2 = 0.4028	792.05	1.4462	1241.9	1.174
318.15 K, x2 = 0.4757	786.06	1.4425	1244.5	1.275
318.15 K, x2 = 0.5349	781.7	1.4398	1246.8	1.356
318.15 K, x2 = 0.6167	776.09	1.4364	1249.7	1.468
318.15 K, x2 = 0.7476	768.18	1.4315	1254.5	1.642
318.15 K, x2 = 0.832	763.74	1.4288	1258.2	1.762

CCCc1ccccc1 [propylbenzene] + CCCCCCCCCCCCCCCC
Conditions	mass density, [1] [kg/m3]	refractive index, [2]	speed of sound, [1] [m/s]	viscosity, [1] [mPa·s]
298.15 K, x2 = 0	858.45	1.4896	1320.6	0.792
298.15 K, x2 = 0.0627	846.52	1.4817	1317.3	0.872
298.15 K, x2 = 0.1009	840.12	1.4775	1315.7	0.928
298.15 K, x2 = 0.207	825.01	1.4677	1314.8	1.092
298.15 K, x2 = 0.3093	813.2	1.4602	1315.7	1.269
298.15 K, x2 = 0.3863	805.79	1.4554	1317.7	1.408
298.15 K, x2 = 0.5055	796.08	1.4492	1320.9	1.654
298.15 K, x2 = 0.5603	792.22	1.4467	1322.7	1.776
298.15 K, x2 = 0.7042	783.32	1.441	1327.7	2.114
298.15 K, x2 = 0.7728	779.76	1.4387	1330	2.291
298.15 K, x2 = 0.8468	776.25	1.4365	1332.8	2.505
308.15 K, x2 = 0	850.01	1.4844	1280.6	0.699
308.15 K, x2 = 0.0627	838.3	1.4766	1277.8	0.766
308.15 K, x2 = 0.1009	832.03	1.4724	1276.8	0.813
308.15 K, x2 = 0.207	817.19	1.4628	1276.4	0.949
308.15 K, x2 = 0.3093	805.67	1.4554	1277.9	1.09
308.15 K, x2 = 0.3863	798.39	1.4509	1279.9	1.203
308.15 K, x2 = 0.5055	788.78	1.4448	1283.6	1.396
308.15 K, x2 = 0.5603	784.97	1.4424	1285.4	1.495
308.15 K, x2 = 0.7042	776.34	1.4368	1290.5	1.761
308.15 K, x2 = 0.7728	772.78	1.4346	1292.9	1.886
308.15 K, x2 = 0.8468	769.24	1.4323	1295.7	2.05
318.15 K, x2 = 0	841.53	1.4792	1241	0.626
318.15 K, x2 = 0.0627	830.05	1.4713	1238.8	0.683
318.15 K, x2 = 0.1009	823.89	1.4673	1238.2	0.722
318.15 K, x2 = 0.207	809.33	1.4578	1238.5	0.835
318.15 K, x2 = 0.3093	798.09	1.4506	1240.4	0.952
318.15 K, x2 = 0.3863	790.87	1.4461	1242.7	1.044
318.15 K, x2 = 0.5055	781.4	1.4402	1246.6	1.2
318.15 K, x2 = 0.5603	777.68	1.4378	1248.6	1.28
318.15 K, x2 = 0.7042	769.05	1.4324	1253.6	1.485
318.15 K, x2 = 0.7728	765.61	1.4302	1256.2	1.585
318.15 K, x2 = 0.8468	762.23	1.428	1258.9	1.713
